From patent US20050202511A1, “AMP-activated protein kinase (AMPK) inhibitor screening assay” (priority 2002, published 2005)

How the values were obtained:
AMPK = assay: Activation of AMPK (data not shown); assay type: biochemical; conditions: read-out: concentration giving half-maximal activation
AMPK-γ2 CBS3-4 construct = molecular target: T1, AMPK-γ2 CBS3-4 construct (Homo sapiens, UniProt Q9UGJ0); assay: Displacement of AMP by AMP-S (competitive binding assay)
T1 construct: the C-terminal pair (CBS3-4, residues 430-556); made in house; host or cells: E. coli BL21 (DE3), vector pGEX-KG
T1 sequence (Q9UGJ0 430-556): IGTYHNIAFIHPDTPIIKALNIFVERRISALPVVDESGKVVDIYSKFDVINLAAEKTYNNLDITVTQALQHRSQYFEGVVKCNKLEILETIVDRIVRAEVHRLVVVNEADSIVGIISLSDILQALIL
Method: (§1) Various concentrations of [^14C]-AMP, [γ^32P] […] Reactions were stopped by spotting 10 ìl onto a Millipore MF Filter Membrane disc and rapidly washing under high vacuum with 1 ml of ice-cold TBS. Radioactivity was determined on the filters by scintillation counting. Non-specific binding (which was trivial) was determined by performing the assay with GST as a control, and was subtracted. […] Data were fitted to the binding models given in the text, using GraphPad Prism 3. Estimates of parameters resulting from fits are quoted in the text and Table 1±standard error, and the curves shown in figures are theoretical curves obtained using those estimates.

[1] = molecular target: cystathionine â-synthase D444N mutant (Homo sapiens, UniProt P35520, D444N); conditions: concentrations of SAM up to 300 μM; cited from earlier work
[2] = molecular target: T2, cystathionine â-synthase CBS domain pair D444N (Homo sapiens, UniProt P35520, D444N); assay: Filter binding assay, GST-CBS domain fusion
T2 construct: 416-551 of cystathionine â-synthase; made in house; host or cells: E. coli BL21 (DE3)
Text: (§2) Finally, DNA encoding the C-terminal CBS domain pair from the enzyme cystathionine â-synthase was cloned and expressed.
(§3) For IMPDH2, DNAs encoding residues 112-232 or the full-length protein (1-514) were amplified using human liver cDNA (Clontech) as template, and cloned into pHAT20 (Clontech) using 5′-AgeI and 3′-KpnI sites added to the primers. For the other constructs, DNAs encoding residues 582-840 of CLC2, or 416-551 of cystathionine â-synthase, were amplified using human liver cDNA as template, and cloned into pGEX-KG as above using 5′-BamHI and 3′-XhoI sites added to the primers. All mutations were created using the Stratagene QuikChange Site-directed Mutagenesis system.
as §1

[3] = molecular target: T3, cystathionine â-synthase CBS1-2 (WT) (Homo sapiens, UniProt P35520); assay: Filter binding assay, GST-CBS domain fusion; conditions: single-site model
T3 construct: 416-551 of cystathionine â-synthase; made in house; host or cells: E. coli BL21 (DE3)
Text: as §2, §3, §1

[4] = molecular target: wild type cystathionine â-synthase (Homo sapiens, UniProt P35520); conditions: read-out: half-maximal effect (activation); cited from earlier work

increase in Kd relative to wild type [2]	Kd ([2]; single-site model)	Kd [3]	Compound	EC50 (AMPK)	Kd fold lower than the Kd of CBS3-4 for AMP (AMPK-γ2 CBS3-4 construct)	Kd (AMPK-γ2 CBS3-4 construct; read-out: Kd from single site competitive binding model)	activation [1]	EC50 [4]
			Nc1ncnc2c1ncn2[C@@H]1O[C@H](COP(O)(O)=S)[C@@H](O)[C@H]1O [AMP-S, adenosine 5′-O-monothiophosphate]	3.1 µM	2 fold	48 ± 12 µM		
15 fold	510 ± 70 µM	34 µM	C[S+](CC[C@H](N)C(=O)O)C[C@H]1O[C@@H](n2cnc3c(N)ncnc32)[C@H](O)[C@@H]1O (some centres unmarked) [S-adenosyl methionine]				not significantly activated	~20 µM
